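Where inhibition never reached the appropriate level, the endpoint shown equals the highest concentration tested. Otherwise, values were interpolated linearly from a five-concentration, 48-hour dose response in 96-well plates. GI50 marks 50% less growth.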 Activity calls are given as the source filed them. Rule as the data show it: active = GI50 up to about 1.1 µM and inactive = higher. Where a SMILES comes first, the peptide text is derived from it. The star is where a group is joined. Cbz = O=C(OCc1ccccc1)*; Boc = CC(C)(C)OC(=O)*; Bn = c1ccc(C*)cc1
Tests used:
Test in all cases: DTP human tumour cell line panel, 48 h
[1] = system: 786-0
[2] = system: A549
[3] = system: CCRF-CEM
[4] = system: MDA-N
[5] = system: NCI-H460
[6] = system: RXF 393
[7] = system: SF-295
[8] = system: SK-MEL-5
[9] = system: SK-OV-3
[10] = system: SN12C
[11] = system: SNB-75
[12] = system: TK-10
[13] = system: U-251
[14] = system: BT-549
[15] = system: CAKI-1
[16] = system: MDA-MB-435
[17] = system: OVCAR-3
[18] = system: OVCAR-4
[19] = system: HOP-92

Structure (SMILES) | GI50 [1] | GI50 [2] | GI50 [3] | GI50 [4] | GI50 [5] | GI50 [6] | GI50 [7] | GI50 [8] | GI50 [9] | GI50 [10] | GI50 [11] | GI50 [12] | GI50 [13] | GI50 [14] | GI50 [15] | GI50 [16] | GI50 [17] | GI50 [18] | GI50 [19]
CO/C(=N\N=C\c1cc(OC)ccc1OC)c1ccncc1 | > 10 µM (inactive) | > 10 µM (inactive) | > 10 µM (inactive) | > 10 µM (inactive) | > 10 µM (inactive) | > 10 µM (inactive) | > 10 µM (inactive) | > 10 µM (inactive) | > 10 µM (inactive) | > 10 µM (inactive) | 3.68 µM (inactive) | > 10 µM (inactive) | > 10 µM (inactive) | – | – | – | – | – | –
COC(=O)C1=C(OC(=O)/C(=C/c2ccccc2)c2ccc(OC)cc2)C(C(=O)OC)[C@@]2(O)[C@@H](C(=O)OC)[C@H](C)C[C@@H]1[C@@H]2C(=O)OC (stereo partly drawn) | 26.1 µM (inactive) | 50.1 µM (inactive) | > 100 µM (inactive) | > 100 µM (inactive) | > 100 µM (inactive) | 17.8 µM (inactive) | > 100 µM (inactive) | > 100 µM (inactive) | 80.4 µM (inactive) | > 100 µM (inactive) | 24.2 µM (inactive) | > 100 µM (inactive) | 63.2 µM (inactive) | 21 µM (inactive) | > 100 µM (inactive) | > 100 µM (inactive) | > 100 µM (inactive) | > 100 µM (inactive) | –
COC(=O)CSc1[nH]c2nc(C)nc(Nc3ccccc3)c2c1C#N | > 10 µM (inactive) | > 10 µM (inactive) | > 10 µM (inactive) | > 10 µM (inactive) | – | > 10 µM (inactive) | > 10 µM (inactive) | > 10 µM (inactive) | > 10 µM (inactive) | > 10 µM (inactive) | > 10 µM (inactive) | > 10 µM (inactive) | – | – | > 10 µM (inactive) | > 10 µM (inactive) | – | > 10 µM (inactive) | 9.42 µM (inactive)
O=[N+]([O-])/C(Cl)=C(\Sc1ccccc1)C(Cl)=C(Cl)Cl | 0.308 µM (active) | 0.229 µM (active) | 0.296 µM (active) | 0.288 µM (active) | 1.54 µM (inactive) | 0.975 µM (active) | 3.43 µM (inactive) | 0.54 µM (active) | 4.21 µM (inactive) | 0.373 µM (active) | – | 1.8 µM (inactive) | 1.29 µM (inactive) | – | 1.83 µM (inactive) | 0.22 µM (active) | 1.52 µM (inactive) | 1.49 µM (inactive) | 1.91 µM (inactive)
CN(C)NC(=O)NC12CC3CC(CC(C3)C1)C2 | > 100 µM (inactive) | > 100 µM (inactive) | > 100 µM (inactive) | – | > 100 µM (inactive) | > 10 µM (inactive) | > 100 µM (inactive) | > 100 µM (inactive) | > 100 µM (inactive) | > 100 µM (inactive) | > 100 µM (inactive) | > 10 µM (inactive) | > 100 µM (inactive) | – | > 100 µM (inactive) | – | – | > 100 µM (inactive) | > 100 µM (inactive)
CCOC(=O)C1(Cc2ccccc2)Cc2ccccc2C1=O (stereo not drawn) | 32.5 µM (inactive) | 23.7 µM (inactive) | 27.8 µM (inactive) | 16.4 µM (inactive) | 27.2 µM (inactive) | – | 37.1 µM (inactive) | 15.1 µM (inactive) | 30.8 µM (inactive) | 27.7 µM (inactive) | 25.4 µM (inactive) | 36.8 µM (inactive) | 34.6 µM (inactive) | – | – | 20 µM (inactive) | 30.8 µM (inactive) | 18.7 µM (inactive) | 16.5 µM (inactive)
C=CCNC(NCC=C)=C(C(Cl)=C(Cl)Cl)[N+](=O)[O-] | 34.9 µM (inactive) | > 100 µM (inactive) | 26.5 µM (inactive) | 32.5 µM (inactive) | > 100 µM (inactive) | – | > 100 µM (inactive) | – | > 100 µM (inactive) | 59.2 µM (inactive) | 89.1 µM (inactive) | – | > 100 µM (inactive) | 26 µM (inactive) | 30.5 µM (inactive) | 32 µM (inactive) | 26.2 µM (inactive) | 31.8 µM (inactive) | –
COc1cc(-c2oc3c(OC)c(O)c(OC)c(O)c3c(=O)c2OC)cc(O)c1OC | 44.4 µM (inactive) | 46.9 µM (inactive) | 28.9 µM (inactive) | 17.7 µM (inactive) | – | 27.1 µM (inactive) | 15.8 µM (inactive) | 21.4 µM (inactive) | 16.4 µM (inactive) | 34.4 µM (inactive) | 11 µM (inactive) | 39.2 µM (inactive) | 43.4 µM (inactive) | – | 24.5 µM (inactive) | 19.6 µM (inactive) | 24.7 µM (inactive) | > 100 µM (inactive) | 39.4 µM (inactive)
CC(C)(C)OC(=O)NC(Cc1ccc(OCc2ccccc2)cc1)C(=O)NC(CCCCNC(=O)OCc1ccccc1)C(=O)O (stereo not drawn) (Boc-Tyr(Bn)-Lys(Cbz)-OH; configuration not given here) | 54.1 µM (inactive) | > 100 µM (inactive) | > 100 µM (inactive) | 40.1 µM (inactive) | – | 17.8 µM (inactive) | – | 40.6 µM (inactive) | – | 30.5 µM (inactive) | > 100 µM (inactive) | 67.3 µM (inactive) | 33.8 µM (inactive) | 17.3 µM (inactive) | – | – | – | – | 16.4 µM (inactive)

Source: ChEMBL document CHEMBL1201862, “PubChem BioAssay data set” (2004)
